The text below walks through data of patent US11358949B2, “Carbamate and urea compounds as multikinase inhibitors” (ANGEX PHARMACEUTICAL, INC., priority 2017, dated 2022).

For one assay, the target named is EPHA3 (Homo sapiens, UniProt P29320). Kind of assay: HotSpot Kinase Assay, EPHA3.
A further assay deals with BLK (Homo sapiens, UniProt P51451). Kind of assay: HotSpot Kinase Assay, BLK.
For another assay, the target named is TIE2/TEK (Homo sapiens, UniProt Q02763). Briefly: HotSpot Kinase Assay, TIE2/TEK.
The next assay has as its target DDR2 (Homo sapiens, UniProt Q16832). Kind of assay: HotSpot Kinase Assay, DDR2.
For another assay, the target named is PDGFβ (Homo sapiens, UniProt P09619). Kind of assay: HotSpot Kinase Assay, PDGFβ.
For another assay, the target named is RON/MST1R (Homo sapiens, UniProt Q04912). Briefly: HotSpot Kinase Assay, RON/MST1R.
Another assay has as its target T1, c-MER (Homo sapiens, UniProt Q12866).
T1 sequence (Q12866 21-999): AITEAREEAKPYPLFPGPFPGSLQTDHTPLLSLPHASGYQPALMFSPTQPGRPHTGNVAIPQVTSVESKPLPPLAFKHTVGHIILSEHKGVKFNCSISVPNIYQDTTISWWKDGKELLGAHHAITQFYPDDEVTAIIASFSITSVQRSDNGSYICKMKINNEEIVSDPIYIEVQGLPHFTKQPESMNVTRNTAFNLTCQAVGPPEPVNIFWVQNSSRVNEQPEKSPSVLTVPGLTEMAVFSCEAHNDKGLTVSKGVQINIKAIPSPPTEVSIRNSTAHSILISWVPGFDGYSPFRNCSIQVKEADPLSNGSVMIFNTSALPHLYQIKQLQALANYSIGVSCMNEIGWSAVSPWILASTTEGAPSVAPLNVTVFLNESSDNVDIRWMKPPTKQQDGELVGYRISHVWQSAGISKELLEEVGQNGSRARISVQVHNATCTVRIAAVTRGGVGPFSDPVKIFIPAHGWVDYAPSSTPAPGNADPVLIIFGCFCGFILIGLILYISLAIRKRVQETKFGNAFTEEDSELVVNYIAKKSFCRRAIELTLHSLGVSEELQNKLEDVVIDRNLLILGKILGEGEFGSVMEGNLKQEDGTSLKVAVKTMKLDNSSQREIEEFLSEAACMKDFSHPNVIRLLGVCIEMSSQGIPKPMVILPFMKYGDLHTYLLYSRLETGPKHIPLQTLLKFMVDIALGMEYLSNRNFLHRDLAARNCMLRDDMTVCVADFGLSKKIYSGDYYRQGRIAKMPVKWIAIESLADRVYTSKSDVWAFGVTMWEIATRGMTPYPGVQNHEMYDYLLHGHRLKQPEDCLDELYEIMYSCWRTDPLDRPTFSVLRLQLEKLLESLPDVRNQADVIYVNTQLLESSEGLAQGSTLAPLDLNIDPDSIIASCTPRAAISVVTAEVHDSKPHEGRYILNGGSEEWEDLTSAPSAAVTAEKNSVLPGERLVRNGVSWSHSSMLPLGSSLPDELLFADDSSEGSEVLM
Briefly: HotSpot Kinase Assay, c-MER.

Another assay has as its target TRKA (Homo sapiens, UniProt P04629). Kind of assay: HotSpot Kinase Assay, TRKA.
For a further assay, the target named is EPHA2 (Homo sapiens, UniProt P29317). Briefly: HotSpot Kinase Assay, EPHA2.
Another assay addresses DDR1 (Homo sapiens, UniProt Q08345). Briefly: HotSpot Kinase Assay, DDR1.
In a further assay the target is MEK1 (Homo sapiens, UniProt Q02750). Briefly: HotSpot Kinase Assay, MEK1.
The next assay concerns the target LCK (Homo sapiens, UniProt P06239). Briefly: HotSpot Kinase Assay, LCK.
The next assay concerns the target EPHB1 (Homo sapiens, UniProt P54762). Briefly: HotSpot Kinase Assay, EPHB1.
The target of another assay is CDK7/cyclin H (Homo sapiens, UniProt P50613). Kind of assay: HotSpot Kinase Assay, CDK7/cyclin H.
The target of the next assay is FRK/PTK5 (Homo sapiens, UniProt P42685). Briefly: HotSpot Kinase Assay, FRK/PTK5.
In another assay the target is LOK/STK10 (Homo sapiens, UniProt O94804). Briefly: HotSpot Kinase Assay, LOK/STK10.
For a further assay, the target named is c-Kit (Homo sapiens, UniProt P10721). Briefly: HotSpot Kinase Assay, c-Kit.
In the next assay the target is EPHA4 (Homo sapiens, UniProt P54764). Kind of assay: HotSpot Kinase Assay, EPHA4.
In the next assay the target is HPK4 (Homo sapiens, UniProt Q8NE63). Kind of assay: HotSpot Kinase Assay, HPK4.
Another assay addresses BRK (Homo sapiens, UniProt Q13882). Kind of assay: HotSpot Kinase Assay, BRK.
The next assay deals with PLK4/SAK (Homo sapiens, UniProt O00444). Briefly: HotSpot Kinase Assay, PLK4/SAK.
For the next assay, the target named is MNK2 (Homo sapiens, UniProt Q9HBH9). Briefly: HotSpot Kinase Assay, MNK2.
The next assay concerns the target SLK/STK2 (Homo sapiens, UniProt Q9H2G2). Kind of assay: HotSpot Kinase Assay, SLK/STK2.
The target of a further assay is RET (Homo sapiens, UniProt P07949). Briefly: HotSpot Kinase Assay, RET.

RON/MST1R, sequence (Q04912 25-1400): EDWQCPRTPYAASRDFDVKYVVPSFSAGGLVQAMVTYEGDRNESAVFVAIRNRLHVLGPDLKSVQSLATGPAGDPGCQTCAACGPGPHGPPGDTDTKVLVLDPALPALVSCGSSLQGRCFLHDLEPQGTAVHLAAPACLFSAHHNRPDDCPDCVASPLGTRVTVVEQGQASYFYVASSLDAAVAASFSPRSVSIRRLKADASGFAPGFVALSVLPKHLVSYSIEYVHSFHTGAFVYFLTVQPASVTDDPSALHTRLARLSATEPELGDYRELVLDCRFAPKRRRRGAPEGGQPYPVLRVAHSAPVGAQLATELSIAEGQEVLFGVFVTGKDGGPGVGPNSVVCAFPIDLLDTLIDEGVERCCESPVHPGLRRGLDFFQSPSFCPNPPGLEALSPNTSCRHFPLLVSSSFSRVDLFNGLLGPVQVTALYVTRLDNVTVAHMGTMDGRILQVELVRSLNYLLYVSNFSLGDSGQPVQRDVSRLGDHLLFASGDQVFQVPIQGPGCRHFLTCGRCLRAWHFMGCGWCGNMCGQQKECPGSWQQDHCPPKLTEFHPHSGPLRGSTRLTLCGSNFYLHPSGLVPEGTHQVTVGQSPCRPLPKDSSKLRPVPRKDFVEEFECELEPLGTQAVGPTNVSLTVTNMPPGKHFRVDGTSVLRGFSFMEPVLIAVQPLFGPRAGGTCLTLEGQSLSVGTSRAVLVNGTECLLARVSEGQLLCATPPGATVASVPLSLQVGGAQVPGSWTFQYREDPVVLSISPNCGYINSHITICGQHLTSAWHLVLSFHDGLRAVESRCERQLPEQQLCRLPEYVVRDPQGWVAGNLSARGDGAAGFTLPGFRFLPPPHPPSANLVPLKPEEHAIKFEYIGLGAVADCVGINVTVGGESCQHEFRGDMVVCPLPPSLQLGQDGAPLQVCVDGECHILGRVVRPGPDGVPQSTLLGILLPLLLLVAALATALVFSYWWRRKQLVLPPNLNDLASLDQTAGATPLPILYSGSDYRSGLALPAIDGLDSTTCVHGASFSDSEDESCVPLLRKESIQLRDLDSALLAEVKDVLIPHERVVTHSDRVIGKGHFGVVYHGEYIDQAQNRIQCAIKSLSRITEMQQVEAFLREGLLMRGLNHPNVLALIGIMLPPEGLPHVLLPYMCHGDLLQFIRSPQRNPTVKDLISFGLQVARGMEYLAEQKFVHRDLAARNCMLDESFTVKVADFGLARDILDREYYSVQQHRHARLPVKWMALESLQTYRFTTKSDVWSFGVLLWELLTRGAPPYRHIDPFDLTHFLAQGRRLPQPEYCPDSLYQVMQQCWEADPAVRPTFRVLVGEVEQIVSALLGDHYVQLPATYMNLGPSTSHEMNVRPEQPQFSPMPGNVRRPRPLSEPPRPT
PDGFβ, sequence (P09619 33-1106): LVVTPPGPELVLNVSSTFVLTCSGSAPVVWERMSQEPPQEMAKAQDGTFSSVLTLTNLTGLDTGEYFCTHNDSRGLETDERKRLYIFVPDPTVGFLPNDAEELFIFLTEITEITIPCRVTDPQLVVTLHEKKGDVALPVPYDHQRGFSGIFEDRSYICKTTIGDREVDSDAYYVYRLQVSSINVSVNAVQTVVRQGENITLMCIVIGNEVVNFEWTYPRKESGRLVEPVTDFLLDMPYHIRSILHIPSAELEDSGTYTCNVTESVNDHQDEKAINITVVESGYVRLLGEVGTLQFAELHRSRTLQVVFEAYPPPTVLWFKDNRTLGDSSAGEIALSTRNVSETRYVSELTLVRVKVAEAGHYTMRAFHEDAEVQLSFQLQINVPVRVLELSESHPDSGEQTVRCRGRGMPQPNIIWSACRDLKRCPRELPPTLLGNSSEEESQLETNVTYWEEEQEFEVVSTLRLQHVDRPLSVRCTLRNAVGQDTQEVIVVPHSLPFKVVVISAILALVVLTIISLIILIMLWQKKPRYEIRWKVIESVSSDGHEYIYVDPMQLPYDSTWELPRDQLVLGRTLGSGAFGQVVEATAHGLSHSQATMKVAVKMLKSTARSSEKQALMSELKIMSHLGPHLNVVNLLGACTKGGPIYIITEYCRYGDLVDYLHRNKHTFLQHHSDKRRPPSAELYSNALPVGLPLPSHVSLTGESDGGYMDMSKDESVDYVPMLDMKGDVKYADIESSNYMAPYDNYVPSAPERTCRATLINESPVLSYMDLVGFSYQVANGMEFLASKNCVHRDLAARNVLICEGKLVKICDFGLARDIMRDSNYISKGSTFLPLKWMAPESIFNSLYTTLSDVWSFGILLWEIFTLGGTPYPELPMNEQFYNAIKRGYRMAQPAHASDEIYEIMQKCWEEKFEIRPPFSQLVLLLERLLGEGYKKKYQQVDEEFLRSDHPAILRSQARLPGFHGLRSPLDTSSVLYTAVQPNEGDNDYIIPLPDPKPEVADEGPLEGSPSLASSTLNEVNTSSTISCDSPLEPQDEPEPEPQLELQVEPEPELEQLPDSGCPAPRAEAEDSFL
BRK, sequence (Q13882 whole entry): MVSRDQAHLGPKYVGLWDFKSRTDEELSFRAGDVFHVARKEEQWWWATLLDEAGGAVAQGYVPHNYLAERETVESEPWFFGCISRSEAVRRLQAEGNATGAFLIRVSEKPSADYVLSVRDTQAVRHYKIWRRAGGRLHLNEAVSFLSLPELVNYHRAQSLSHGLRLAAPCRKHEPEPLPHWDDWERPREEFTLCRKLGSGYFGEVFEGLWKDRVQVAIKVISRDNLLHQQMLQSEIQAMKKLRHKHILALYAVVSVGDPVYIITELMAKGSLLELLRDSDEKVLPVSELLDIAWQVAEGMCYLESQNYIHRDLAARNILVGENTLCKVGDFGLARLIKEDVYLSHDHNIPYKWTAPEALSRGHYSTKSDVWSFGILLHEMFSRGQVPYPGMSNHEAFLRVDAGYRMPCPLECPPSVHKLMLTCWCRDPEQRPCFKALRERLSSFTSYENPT
CDK7/cyclin H, sequence (P50613 whole entry): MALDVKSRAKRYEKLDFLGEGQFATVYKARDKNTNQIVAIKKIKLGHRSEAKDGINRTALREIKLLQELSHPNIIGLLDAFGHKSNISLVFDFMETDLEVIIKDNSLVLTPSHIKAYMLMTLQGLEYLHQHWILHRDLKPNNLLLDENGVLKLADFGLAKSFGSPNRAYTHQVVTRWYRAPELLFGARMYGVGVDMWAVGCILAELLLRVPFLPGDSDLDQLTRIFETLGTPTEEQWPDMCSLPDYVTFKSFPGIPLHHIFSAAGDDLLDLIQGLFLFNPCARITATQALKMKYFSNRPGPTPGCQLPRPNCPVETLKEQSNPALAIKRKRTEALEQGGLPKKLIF
CDK7/cyclin H, sequence (P51946 whole entry partner): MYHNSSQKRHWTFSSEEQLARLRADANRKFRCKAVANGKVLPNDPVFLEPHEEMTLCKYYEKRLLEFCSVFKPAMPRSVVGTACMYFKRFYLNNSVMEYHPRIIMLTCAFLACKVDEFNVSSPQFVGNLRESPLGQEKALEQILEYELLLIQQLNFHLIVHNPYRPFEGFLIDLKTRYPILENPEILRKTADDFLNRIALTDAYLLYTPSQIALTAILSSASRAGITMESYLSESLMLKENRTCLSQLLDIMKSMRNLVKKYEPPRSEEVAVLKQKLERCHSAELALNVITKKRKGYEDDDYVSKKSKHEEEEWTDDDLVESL
CDK7/cyclin H, sequence (P51948 whole entry partner): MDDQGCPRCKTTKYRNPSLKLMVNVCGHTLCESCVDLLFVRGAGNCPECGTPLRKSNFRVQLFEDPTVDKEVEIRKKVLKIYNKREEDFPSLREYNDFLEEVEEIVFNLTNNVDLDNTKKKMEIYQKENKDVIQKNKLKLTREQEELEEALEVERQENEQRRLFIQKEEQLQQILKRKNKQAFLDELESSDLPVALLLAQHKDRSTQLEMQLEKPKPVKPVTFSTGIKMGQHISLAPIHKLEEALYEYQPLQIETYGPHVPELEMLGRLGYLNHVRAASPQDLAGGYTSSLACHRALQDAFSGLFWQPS
EPHB1, sequence (P54762 18-984): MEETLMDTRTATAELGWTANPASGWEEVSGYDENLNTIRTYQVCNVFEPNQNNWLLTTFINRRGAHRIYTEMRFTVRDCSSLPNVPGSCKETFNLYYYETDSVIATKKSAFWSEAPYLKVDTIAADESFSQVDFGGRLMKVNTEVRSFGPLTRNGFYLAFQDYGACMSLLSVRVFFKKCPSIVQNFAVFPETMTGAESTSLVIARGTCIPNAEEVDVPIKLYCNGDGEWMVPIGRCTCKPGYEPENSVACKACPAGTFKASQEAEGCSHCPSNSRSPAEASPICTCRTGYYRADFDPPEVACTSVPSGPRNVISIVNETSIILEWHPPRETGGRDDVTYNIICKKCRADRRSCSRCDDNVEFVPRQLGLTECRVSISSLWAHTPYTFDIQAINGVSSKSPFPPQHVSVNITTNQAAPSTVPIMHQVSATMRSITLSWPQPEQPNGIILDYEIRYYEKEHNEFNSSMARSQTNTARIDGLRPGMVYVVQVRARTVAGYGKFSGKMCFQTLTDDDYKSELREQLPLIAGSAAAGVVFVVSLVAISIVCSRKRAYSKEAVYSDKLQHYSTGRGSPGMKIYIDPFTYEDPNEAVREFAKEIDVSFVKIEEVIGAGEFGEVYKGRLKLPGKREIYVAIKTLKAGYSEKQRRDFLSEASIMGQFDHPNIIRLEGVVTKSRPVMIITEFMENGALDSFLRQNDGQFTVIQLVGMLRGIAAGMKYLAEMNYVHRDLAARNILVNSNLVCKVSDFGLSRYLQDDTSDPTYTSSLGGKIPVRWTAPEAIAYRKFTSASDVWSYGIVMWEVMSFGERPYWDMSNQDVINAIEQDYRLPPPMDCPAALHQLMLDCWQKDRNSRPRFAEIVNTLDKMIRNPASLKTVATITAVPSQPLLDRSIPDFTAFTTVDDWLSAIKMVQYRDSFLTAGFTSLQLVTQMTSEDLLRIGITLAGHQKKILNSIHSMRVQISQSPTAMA
Method for BLK: (§1) Specifically, for each reaction, kinase and substrate were mixed in a pH 7.5 buffer containing 20 mM HEPES, 10 mM MgCl2, 1 mM EGTA [Ethylene glycol-bis(2-aminoethylether)-N,N,N′,N′-tetraacetic acid], 0.02% Brij35, 0.02 mg/mL BSA (Bovine Serum Albumin), 0.1 mM Na3VO4, 2 mM DTT, and 1% DMSO. Compounds were then added to each reaction mixture. After a 20-min incubation, ATP (Sigma-Aldrich) and [γ-^33P] ATP (PerkinElmer) were added at a final total concentration of 100 μM. Reactions were carried out at room temperature for 2 hours and spotted onto P81 ion exchange cellulose chromatography paper (Whatman). […] The percent remaining kinase activity relative to a vehicle-containing (DMSO) kinase reaction was calculated for each kinase/inhibitor pair. […] IC50 values were calculated using Prism 5 (GraphPad).
Method for BRK: as §1
Method for CDK7/cyclin H: as §1
Method for DDR2: as §1
Method for EPHA2: as §1
Method for EPHA3: as §1
Method for EPHA4: as §1
Method for EPHB1: as §1
Method for FRK/PTK5: as §1
Method for HPK4: as §1
Method for LCK: as §1
Method for MEK1: as §1
Method for MNK2: as §1
Method for PDGFβ: as §1
Method for PLK4/SAK: as §1
Method for RET: as §1
Method for RON/MST1R: as §1
Method for SLK/STK2: as §1
Method for TIE2/TEK: as §1
Method for TRKA: as §1
Method for c-MER: as §1

Take `COc1cc2c(Oc3ccc(NC(=O)C4(C(=O)Nc5ccc(F)cc5)CC4)cc3)ccnc2cc1OC(=O)N1CCN(C)CC1` [Compound 1-10]: the IC50 (commonly the concentration at which inhibition is half-maximal) is 100 to 1000 nM on EPHA3; above 1000 nM against BLK; above 1000 nM against TIE2/TEK; below 100 nM at DDR2; 100 to 1000 nM on PDGFβ; above 1000 nM against RON/MST1R. In addition, the IC50 at c-MER was below 100 nM; at TRKA, below 100 nM; against EPHA2, below 100 nM; on DDR1, below 100 nM; against MEK1, above 1000 nM; on LCK it was 100 to 1000 nM. In addition, the IC50 against EPHB1 was 100 to 1000 nM; against CDK7/cyclin H, above 1000 nM; against FRK/PTK5, above 1000 nM; against LOK/STK10, 100 to 1000 nM; on c-Kit, below 100 nM; at EPHA4, 100 to 1000 nM. Besides, the concentration for half-maximal inhibition (IC50) on HPK4 was below 100 nM; against BRK, below 100 nM; on PLK4/SAK, above 1000 nM; on MNK2, 100 to 1000 nM; at SLK/STK2, above 1000 nM; on RET, 100 to 1000 nM.
